Assay results as given in US20130303562A1, “CHEMICAL AND RNAI SUPPRESSORS OF NEUROTOXICITY IN HUNTINGTON'S DISEASE” (priority 2010, published 2013).
Entries after “also recorded” stand apart in the source; their conditions may differ. Where two headings read alike, the source gives them in different places.

Experiments:
[1] = test system: HD larvae (Elav^c155-GAL4; UAS-Htt-Q138/+); assay: In vivo rescue: viability of HD larvae after 5-day drug dosing in liquid culture; design: species or system Drosophila; settings: larvae reared in liquid culture, 5-day dosing, compared to DMSO-treated controls
Method: In vivo Rescue studies: For small molecule in vivo rescue studies, Elav^c155; UAS-Htt-Q138-mRFP^1, UAS-mCD8-GFP/+1st instar larvae were collected en-masse and dispensed into liquid yeast media (10 larvae/well) containing therapeutic agents at three different concentrations as described in the results (n=8 replicas/concentration). Cultures were reared at 21° C. and larval viability was assessed after 5 days and the mean number of living Htt138Q larvae (i.e. GFP^+, Htt138QmRFP^+, and mobile) was tabulated, and expressed as a percentage of total larvae/well. For genetic rescue studies with lkb1, two Htt138Q strains were utilized: a strong expressing line, UAS-Htt138QmRFP^1 which is pharate lethal when crossed to Elav^c155, and a weaker expressing line, UAS-Htt138QmRFP^2 which survives to adulthood and is viable for a number of weeks. Using the strong line, pharate lethality at 25° C. was calculated after lkb1 (lkb1^4B1-11 and lkb1^4A4-2 alleles) was introduced into an Elav^c155, UAS-Htt/+background. Lkb1^4B1-11 is a premature truncation allele (Q98>Stop), and lkb1^4A4-2 is an EMS null allele (589 b.p. deletion removing 150 b.p. of the 5′ UTR, the start codon and the beginning of the open reading frame). For Top1 in vivo analysis, Elav^c155, Top^112 recombinants were generated and crossed to UAS-Htt138QmRFP^1.
To further examine the RNAi/small molecule screen hits, we assayed in vivo efficacy by testing their ability to rescue lethality in our Drosophila HD model. […] Specific inhibitors of Lkb1 were not available for in vivo testing.

[2] = test system: Htt-Q138 expressing primary neural cultures; assay: In vitro validation of screen hits by confocal microscopy of primary cultures on glass coverslips; type: cell-based, Drosophila; settings: for Aggregate formation (confocal): 56 μM, Htt-Q138 expressing cultures
Description: FIG. 4. In vitro validation of small molecule screen hits. Confocal microscopy images of primary cultures plated on glass coverslips and treated with either DMSO (A,B) or test compounds (C,D). […] HttQ15 is soluble and fills most neurite processes. […] (E) Quantification of altered Htt138Q distribution following Camptothecin treatment.
(§1) Microscopy: For high-content screening mature 7-day old cultures were imaged with an ImageXpress^MICRO robotic microscope (Molecular Devices, Sunnyvale, Calif.) using a 10× objective and FITC/Cy3 filter sets. Images were 1392×1040 pixels, or 897×670 micrometers. Laser-based autofocusing was used to locate plate bottoms, and then image-based focusing used to resolve fluorescently labeled neurons over a 48 μm range. The GFP and mRFP channels were imaged in the same focal plane, with exposure times of 850 and 400 ms respectively. Three sites were imaged per well for each treatment group, and the screen was done in duplicate. For confocal microscopy of primary cultures, neuroblasts were plated on poly-L-lysine coated chambered cover slips (LabTekII, 0.8 cm^2/well) at 18,300 cells/well in 50 μL volume. Small molecules were added to cultures 24 hours after plating, incubated for 7 days, and then imaged with a Leica TCS-SP2 confocal LSM microscope.

[3] = test system: Htt-Q138 expressing Drosophila primary neural cultures; assay: Morphological analysis of small-molecule treated Htt-Q138 primary neural cultures versus Htt-Q15 controls; type: cell-based; settings: for Morphology profiles of Q138 expressing neurons (effect in words): Htt-Q138 primary neural cultures, compared with Htt-Q15 controls
Method: Primary Cell Culture. Elav^c155-GAL4 virgins were collected en-masse and crossed to either UAS-Htt-Q138-mRFP^1, UAS-mCD8-GFP or UAS-HttQ15-mRFP^1, UAS-mCD8-GFP males to generate embryos for primary culture preparation.
Compound screening: Primary cultures were re-suspended directly in Shields and Sang M3 media (Sigma) supplemented with 10 U/mL penicillin, 10 μg/mL streptomycin, 200 ng/mL insulin, and 5% fetal bovine serum. […] The neuroblast density was 18,500 cells/well. The primary screen was carried out in duplicate and hits were validated with 12 additional replicate wells.
as §1, with “Images were 1392×1040 pixels, or 897×670 micrometers.” left out
Digital Image Analysis of High Content Screening Data Sets: Neuronal morphological analysis and Htt aggregate quantification for automated microscopy images was performed as previously described (Schulte et al., Wu et al.). In brief, Htt-Q138 aggregates were quantified as the total number of pixels/image with an intensity higher than an empirically set threshold. Statistical analysis was conducted using a two sample t-test. To quantify neuronal morphologies, cell body clusters (neuromeres) and neurites were extracted from images using our custom algorithms (Wu et al.). […] Absolute counts of neuromeres/bin were tabulated for all images. Neurite segment lengths were similarly clustered into three groups (short, medium, and long) using the K-means method and then quantified. Cell cluster and neurite counts were converted into percentages to control for any variation in cell number between wells arising from pipetting error. Mean neuromere area and neurite length for each image were also calculated to give a total of eight morphological metrics for image morphology quantification. For statistical analysis, p-values for each morphological feature were calculated using a two sample t-test (e.g. small neuromere feature of Htt-Q138 drug-treated cultures versus small neuromere feature of Htt-Q15 DMSO cultures). […] The combined statistic has a χ^2 distribution with 2k degrees of freedom under the joint null hypothesis. This method works well in cases where the evidence against the null-hypothesis is spread across different features. Excluded from analysis were compound-treated wells with <6 images, out-of-focus images, or images that lacked cell profiles altogether.

[4] = test system: Htt138Q aggregate formation; assay: Htt-Q138 aggregation-inhibition screening of small molecules in Drosophila primary neural cultures (automated microscopy); type: cell-based; settings: for Htt-Q138 aggregate formation (effect in words): range of concentrations (56 μM, 5.6 μM); for Htt-Q138 aggregation (effect in words): Htt-Q138 primary neural cultures
Method: Primary Cell Culture. Elav^c155-GAL4 virgins were collected en-masse and crossed to either UAS-Htt-Q138-mRFP^1, UAS-mCD8-GFP or UAS-HttQ15-mRFP^1, UAS-mCD8-GFP males to generate embryos for primary culture preparation. Neuroblasts were isolated as described (Sepp et al., 2008).
Compound screening: Primary cultures were re-suspended directly in Shields and Sang M3 media (Sigma) supplemented with 10 U/mL penicillin, 10 μg/mL streptomycin, 200 ng/mL insulin, and 5% fetal bovine serum. […] of compounds from arrayed small-molecule libraries (NINDS Custom Collection 2, Prestwick) Collection, BIOMOL2 ICCB-Longwood Known Bioactives High Concentration, various concentration from 1-15 mM in DMSO) were applied to 50 μL of cultures 24 hours after plating on optical bottom 384-well plates (Corning 3712). The neuroblast density was 18,500 cells/well. The primary screen was carried out in duplicate and hits were validated with 12 additional replicate wells.
as §1
Digital Image Analysis of High Content Screening Data Sets: Neuronal morphological analysis and Htt aggregate quantification for automated microscopy images was performed as previously described (Schulte et al., Wu et al.). In brief, Htt-Q138 aggregates were quantified as the total number of pixels/image with an intensity higher than an empirically set threshold. Statistical analysis was conducted using a two sample t-test. To quantify neuronal morphologies, cell body clusters (neuromeres) and neurites were extracted from images using our custom algorithms (Wu et al.). […] Absolute counts of neuromeres/bin were tabulated for all images. Neurite segment lengths were similarly clustered into three groups (short, medium, and long) using the K-means method and then quantified. Cell cluster and neurite counts were converted into percentages to control for any variation in cell number between wells arising from pipetting error. Mean neuromere area and neurite length for each image were also calculated to give a total of eight morphological metrics for image morphology quantification. For statistical analysis, p-values for each morphological feature were calculated using a two sample t-test (e.g. small neuromere feature of Htt-Q138 drug-treated cultures versus small neuromere feature of Htt-Q15 DMSO cultures). The resultant morphological p-values for individual features were then integrated into a single p-value using the Fisher method (Fisher 1932) defined by the equation χ^2=−2Σi=1^k loge(pi), where k represents independent tests, pi is the p-value of the i-th feature. The combined statistic has a χ^2 distribution with 2k degrees of freedom under the joint null hypothesis. This method works well in cases where the evidence against the null-hypothesis is spread across different features. Excluded from analysis were compound-treated wells with <6 images, out-of-focus images, or images that lacked cell profiles altogether.

[5] = test system: PC12 cells; settings: cited from earlier work
[6] = test system: gap junction; settings: cited from earlier work
[7] = Solubility / precipitation in cultures; type: physicochemical; settings: liquid cultures
[8] = test system: NP-3 mouse HD model; settings: cited from earlier work

CCC1(O)C(=O)OCc2c1cc1n(c2=O)Cc2cc3cc(O)ccc3nc2-1 (centres unmarked) [10-OH-Camptothecin]
Viability of Htt-Q138 expressing larvae / rescue of Htt-Q138 lethality ([1]; listed as 10-Hydroxycamptothecin): increased larval longevity in vivo, but to a lesser extent than Rapamycin; also recorded: more efficacious than Camptothecin | Aggregate formation (confocal) [2]: reduces aggregate formation | Dystrophic morphology profiles (effect in words) [3]: partially reverting dystrophic morphology profiles | Morphology profiles of Q138 expressing neurons (effect in words) [3]: Rescue of Htt-Q138 mutant morphology | Htt-Q138 aggregate formation (effect in words) [4]: rescue aggregate formation

CC1(C)[C@@H](O)CC[C@]2(C)[C@H]3C(=O)C=C4[C@@H]5C[C@@](C)(C(=O)O)CC[C@]5(C)CC[C@@]4(C)[C@]3(C)CC[C@@H]12 [18β-Glycyrrhetinic acid]
Viability of Htt-Q138 expressing larvae / rescue of Htt-Q138 lethality [1]: rescue HD toxicity in vivo | Viability of Htt-Q138 expressing larvae / rescue of Htt-Q138 lethality ([1]; listed as 180-Glycyrrhetinic acid): almost as efficacious as Rapamycin | Neurotoxicity in PC12 cellular stress model [5]: suppresses neurotoxicity | Gap junction activity [6]: block gap junction activity

O=C(Nc1ccc(Br)cc1)c1cccc(S(=O)(=O)Nc2ccc(Br)cc2)c1 [C2-8]
Neurotoxic properties / morphological defects in cultures [3]: reduced axon outgrowth, neuromere size, and suppressed GFP expression | Morphology profiles of Q138 expressing neurons (effect in words) [3]: none reverted the morphology profiles of Q138 expressing neurons towards normal | Htt-Q138 aggregation (effect in words) [4]: reduced Htt-Q138 aggregation

CC[C@@]1(O)C(=O)OCc2c1cc1n(c2=O)Cc2cc3ccccc3nc2-1 [Camptothecin]
Viability of Htt-Q138 expressing larvae / rescue of Htt-Q138 lethality [1]: increased larval longevity in vivo, but to a lesser extent than Rapamycin | Aggregate formation (confocal) [2]: reduces aggregate formation | Number of Htt138Q pixels/neuronal area (Htt-RFP pixels/neuromere and neurite GFP pixels) ([2]; mutant cultures, p<0.05, n=4): increase | Neurotoxic properties / morphological defects in cultures ([3]; primary neural cultures): did not observe morphological defects | Dystrophic morphology profiles (effect in words) ([3]; range of concentrations (56 μM, 5.6 μM)): partially reverting dystrophic morphology profiles | Precipitation when added to cultures [7]: readily precipitates when added to cultures | Htt-Q138 aggregate formation (effect in words) [4]: rescue aggregate formation

O=C1Nc2ccc(I)cc2/C1=C/c1cc(Br)c(O)c(Br)c1 [GW5074]
Striatal degeneration [8]: reduced striatal degeneration | Neurotoxic properties / morphological defects in cultures [3]: reduced axon outgrowth, neuromere size, and suppressed GFP expression | Morphology profiles of Q138 expressing neurons (effect in words) [3]: none reverted the morphology profiles of Q138 expressing neurons towards normal | Htt-Q138 aggregation (effect in words) [4]: reduced Htt-Q138 aggregation; also recorded: inhibited mutant Hu aggregate formation

C=C1[C@@H](O)[C@@H]2O[C@]3(CC[C@H](/C=C/[C@@H](C)[C@@H]4CC(C)=C[C@@]5(O[C@H](C[C@@](C)(O)C(=O)O)CC[C@H]5O)O4)O3)CC[C@H]2O[C@@H]1[C@@H](O)C[C@H](C)[C@H]1O[C@@]2(CCCCO2)CC[C@H]1C [Okadaic acid]
Morphology profiles of Q138 expressing neurons (effect in words) [3]: exacerbated the mutant Htt-Q138 mutant morphology | Htt-Q138 aggregation (effect in words) [4]: suppress Htt-Q138 aggregation

C[C@@H]1C[C@H]2O[C@@H]2/C=C\C=C\C(=O)Cc2c(Cl)c(O)cc(O)c2C(=O)O1 [Radicicol]
Neurotoxic properties / morphological defects in cultures [3]: reduced axon outgrowth, neuromere size, and suppressed GFP expression | Morphology profiles of Q138 expressing neurons (effect in words) [3]: none reverted the morphology profiles of Q138 expressing neurons towards normal | Htt-Q138 aggregation (effect in words) [4]: reduced Htt-Q138 aggregation

CO[C@H]1C[C@@H]2CC[C@@H](C)[C@@](O)(O2)C(=O)C(=O)N2CCCC[C@H]2C(=O)O[C@H]([C@H](C)C[C@@H]2CC[C@@H](O)[C@H](OC)C2)CC(=O)[C@H](C)/C=C(\C)[C@@H](O)[C@@H](OC)C(=O)[C@H](C)C[C@H](C)/C=C/C=C/C=C/1C [Rapamycin]
Neurotoxic properties / morphological defects in cultures ([3]; primary neural cultures): reduced axon outgrowth, neuromere size, and suppressed GFP expression
